Experimental findings from US7799794B2, “Treatment for cardiovascular disease” (Merck Sharp & Dohme Corp., priority 2000, dated 2010) are described below.

What all share (assay type): in vivo, rat
The subject of data set [1] is Sprague-Dawley rats. Put plainly: Renal findings at 7 weeks: immunohistochemistry and BUN (Example 2). As to conditions: low NaCl diet. How it is done: Rats were placed on a low sodium diet (NaCl, 0.125%) with or without 2% oxonic acid for 7 weeks. A third group were administered allopurinol in the drinking water (150 mg/L) with weekly adjustments of the dose depending on the uric acid level.
(§1) Am J Clin Pathol 1957; 28:152.]. Serum blood urea nitrogen was measured by a standard kit (Sigma, St Louis, Mo.).
(§2) Renal biopsies were fixed in Methyl-Carnoy's, 10% formalin or 100% ethanol and embedded in paraffin. The presence of uric acid crystals was evaluated by staining 4-μm ethanol-fixed sections with de Galantha and modified Von Kossa stains. Kidney tissue from rats with acute uric acid nephropathy, induced with oxonic acid and uric acid administration was used as a positive control [Stavric, B., Johnson, W. J., and Grice, H. C., Uric acid nephropathy: An experimental model, Proc. Soc. Exp. Biol. Med. 130: 512-16 (1969).]. Light microscopy was performed in 4-μm sections of Methyl-Carnoy's fixed tissue stained with periodic acid Schiff (PAS) reagent or with hematoxylin and eosin.
(§3) Methyl-Carnoy's fixed tissue sections were analyzed by indirect immunoperoxidase [Lombardi, D., Gordon , K. L., Polinsky, P., Suga, S., Schwartz, S. M., and Johnson, R. J. Salt sensitive hypertension develops after transient exposure to angiotensin II. Hypertension 33:1013-1019, 1999] staining with the following primary antibodies: OP199, a goat polyclonal antibody against osteopontin (OPN)(gift of C. Giachelli, Univ of Wash., Seattle); ED-1, a monoclonal antibody to rat monocytes and macrophages (Serotec); goat antihuman type III collagen (Southern Biotechnology Associates Inc, Birminghan Ala.); and anti-renin, a mouse antibody to human renin (Sanofi Recherche, Montpellier, France). Sections were incubated with a secondary antibody followed by horseradish peroxidase-conjugated avidin D (Vector Laboratories, Burlingame, Calif.), diaminobenzidine (Sigma) with or without nickel chloride as a chromogen, and counsterstained with methyl green.
(§4) NOS1 was detected on formalin fixed tissue sections with a rabbit anti-rat neuronal nitric oxide synthase (Transduction Laboratories, Lexington, Ky.), followed by a biotinylated secondary antibody, diaminobenzidine with nickel chloride and counterstained with nuclear fast red.
(§5) All quantification was performed blinded. The tubular expression of osteopontin (OPN), which is a sensitive marker of tubulointerstitial injury, was calculated as the percent of renal cortex occupied by OPN-positive tubules [Lombardi, D., Gordon, K. L., Polinsky, P., Suga, S., Schwartz, S. M., and Johnson, R. J. Salt sensitive hypertension develops after transient exposure to angiotensin II. Hypertension 33:1013-1019, 1999]. Utilizing computer-assisted image analysis software (Optimas V6.2, Media Cybernetics, Silver Springs, Md.) and digitized images, the percent of area occupied by OPN positive tubules per 4 mm^2 field at a magnification of 50× was measured and the mean percent area calculated for each biopsy. The interstitial deposition of collagen type III was calculated as the % of renal cortex occupied by collagen III, noted by immunostaining, by computer image analysis. The mean number of interstitial macrophages (ED-1+cells) in each biopsy was calculated in a blinded manner by counting the total number of positive interstitial cortical cells in 20 sequentially selected 0.25 mm^2 grids at 200× magnification. Renin expression was quantified by the number of glomeruli with positive staining for juxtaglomerular renin using a minimum of 100 glomeruli in each biopsy as previously described [Eng, E., et al., Renal proliferation and phenotypic changes in rats with two-kidney, one-clip Goldblatt hypertension. Am J Hypertens 7:177-185 (1994)]; this has been shown previously to correlate with intrarenal renin content[Eng, E., et al., Renal proliferation and phenotypic changes in rats with two-kidney, one-clip Goldblatt hypertension. Am J Hypertens 7:177-185 (1994)]. […]

In data set [2] the test system is Sprague-Dawley rats. Description: Renal findings at 11 weeks: immunohistochemistry and BUN (Example 3). On the procedure: (§6) Rats were placed on the low sodium diet with oxonic acid for 7 weeks, and then were matched based on uric acid level and blood pressure in various groups to either receive allopurinol, have the oxonic acid withdrawn from the diet, or continue the oxonic acid/low salt diet. A control group of six rats were placed on the lowsodium diet alone for 11 weeks. All of these rats were sacrificed at week 11.
as §1, §2, §3, §4
as §5, with “hypertension.” for “hypertension. Am J Hypertens 7:177-185 (1994)]; this has been shown previously to correlate with intrarenal renin content[Eng, E., et al., Renal proliferation and phenotypic changes in rats with two-kidney, one-clip Goldblatt hypertension. Am J Hypertens 7:177-185 (1994)].”

Data set [3] deals with Sprague-Dawley rats. Description: Mild hyperuricemia model: 2% oxonic acid on normal salt diet (Example 1). How it is done: All studies utilized adult male Sprague-Dawley rats (Simonsen Laboratories, Gilroy Calif.)(200-250 g).
Rats were placed on a normal salt (NaCl 0.26%) diet with or without 2% oxonic acid (Ziegler Bros, Gardners, Pa.) added to the diet and rats were sacrificed at week 7.
Am J Physiol 268:F1164-76, 1995].
as §1, §2

In data set [4] the test system is Sprague-Dawley rats. Put plainly: Enalapril or L-Arginine in hyperuricemic rats on low salt diet: blood pressure (Example 4). As to conditions: hyperuricemic control rats, OA + low salt diet. How it is done:
Rats were placed on either low salt diet, low salt diet with 2% oxonic acid, low salt diet with oxonic acid and enalapril (1 mg/kg/d in drinking water), or low salt diet with oxonic acid and L-Arginine (1% in drinking water).
(§7) Am J Physiol 268:F1 164-76, 1995].

In data set [5] the test system is Sprague-Dawley rats. Put plainly: Allopurinol intervention or oxonic acid withdrawal in hyperuricemic rats: blood pressure (Example 3). As to conditions: oxonic acid withdrawn at 7 weeks, LSD continued.
Source text: as §6, §7, §1

Structures are written as SMILES.

In the case of `O=C(O)c1nc(=O)[nH]c(=O)[nH]1` [oxonic acid], the Renin in the data set with Sprague-Dawley rats [1] (control 39.6 ± 2.0) is on record as 60.9 ± 1.5 % positive JGA; with Sprague-Dawley rats [2] (OA withdrawal at 7 weeks) it was 50.5 ± 2.1 % positive JGA; in the data set on Sprague-Dawley rats [2] (low NaCl diet, allopurinol added at 7 weeks, control 41.0 ± 1.9) it was 58.4 ± 0.8 % positive JGA. Also, the NOS-1 in the data set with Sprague-Dawley rats [1] (control 147.2 ± 12.4) is 80.4 ± 4.3 positive cells/100 glomeruli; with Sprague-Dawley rats [2] (OA withdrawal at 7 weeks) it was 83.1 ± 10.8 positive cells/100 glomeruli; with Sprague-Dawley rats [2] (low NaCl diet, allopurinol added at 7 weeks, control 104.4 ± 11.5), 65.6 ± 7.1 positive cells/100 glomeruli. Also, the OPN in the data set on Sprague-Dawley rats [1] (mean±SE, control 0.9 ± 0.06) is given as 1.8 ± 0.06 % increase; in the data set with Sprague-Dawley rats [2] (OA withdrawal at 7 weeks), 1.08 ± 0.06 % increase; with Sprague-Dawley rats [2] (low NaCl diet, allopurinol added at 7 weeks, control 0.7 ± 0.08), 1.33 ± 0.14 % increase. The “Type III collagen” value was 8.8 ± 1.5 % in the data set on Sprague-Dawley rats [1] (mean±SE, control 5.4 ± 0.3); 8.9 ± 1.6 % with Sprague-Dawley rats [2] (OA withdrawal at 7 weeks); 13.9 ± 0.6 % with Sprague-Dawley rats [2] (low NaCl diet, allopurinol added at 7 weeks, control 7.2 ± 0.6). Besides, the BUN came out at 23.2 ± 2.3 mg/dL in the data set on Sprague-Dawley rats [1] (mean±SE, control 14.4 ± 1.2); 18.8 ± 0.8 mg/dL with Sprague-Dawley rats [2] (OA withdrawal at 7 weeks); 24.1 ± 1.7 mg/dL in the data set with Sprague-Dawley rats [2] (low NaCl diet, allopurinol added at 7 weeks, control 16.6 ± 0.9). The “ED-1 (macrophages)” value with Sprague-Dawley rats [1] (mean±SE, control 18.3 ± 1.3) is 27.2 ± 1.9 cells/mm2; with Sprague-Dawley rats [2] (OA withdrawal at 7 weeks), 33.0 ± 1.6 cells/mm2; in the data set on Sprague-Dawley rats [2] (low NaCl diet, allopurinol added at 7 weeks, control 27.8 ± 1.4) it was 36.5 ± 1.4 cells/mm2. In addition, in the data set with Sprague-Dawley rats [3] (2% oxonic acid diet, normal salt diet, 7 weeks, control 394±18), the “body weight at the end of the study” value amounted to 367.6 ± 17 g. In the data set with Sprague-Dawley rats [3] (2% oxonic acid in the diet), the urinary uric acid entry is on record as “increased two-fold”. In the data set with Sprague-Dawley rats [3] (2% oxonic acid, 7 weeks), the “special stains for uric acid crystals in kidney” value is listed as “negative”. For the same compound, in the data set on Sprague-Dawley rats [4], the “increase in systolic blood pressure over the 7 week dietary period” value is listed as “approximately 20 mm Hg”. For the same compound, the “blood pressure and serum uric acid in hypertensive, hyperuricemic rats” value with Sprague-Dawley rats [5] is given as “reduction in the blood pressure in association with a fall in serum uric acid values”.
